Key:
central nervous system = experiment: tele-stereo EEG (electroencephalography) of rats after oral administration; assay type: in vivo; settings: for effect of the compound according to formula I reached by known rooibos constituents: approximately equimolar quantities
From the text: In the context of the present invention, the pharmacological activity of the compound according to the invention of formula I was compared with the known constituents of the rooibos extract, such as aspalathin, catechin or (−)-epicatechin.
Since these drugs have a broad spectrum of side effects, the use of a rooibos extract with the compound according to formula I is advantageous as a drug because natural substances can usually be expected to have a lower rate of side effects. […] This is not generally commonplace for flavonoids.

[1] = solubility during the preparation of the HPLC standard solutions; assay type: physicochemical; settings: preparation of the standard solutions for HPLC
monoamine oxidase = settings: Plantextrakt, 2005; cited from earlier work

Compound: O=C(CCc1ccc(O)c(O)c1)c1c(O)cc(O)c([C@@H]2O[C@H](CO)[C@@H](O)[C@H](O)[C@H]2O)c1O [aspalathin]
- effect of the compound according to formula I reached by known rooibos constituents (central nervous system): cannot be achieved with approximately equimolar quantities

Compound: O=c1cc(-c2ccc(O)c(O)c2)oc2c([C@@H]3O[C@H](CO)[C@@H](O)[C@H](O)[C@H]3O)c(O)cc(O)c12 [orientin, orientin(luteolin-8-C-glucoside)]
- solubility in standard solutions [1]: exhibited solubility problems

Compound: O=c1cc(-c2ccc(O)cc2)oc2c([C@@H]3O[C@H](CO)[C@@H](O)[C@H](O)[C@H]3O)c(O)cc(O)c12 [vitexin, vitexin(apigenin-8-C-glucoside)]
- solubility in standard solutions [1]: exhibited solubility problems

Compound: O=c1c(O)c(-c2ccc(O)c(O)c2)oc2cc(O)cc(O)c12 [Quercetin]
- inhibition of the production of monoamine oxidase (monoamine oxidase): capable of inhibiting the production of monoamine oxidase

Compound: catechin
- effect of the compound according to formula I reached by known rooibos constituents (central nervous system): cannot be achieved with approximately equimolar quantities

Compound: Oc1cc(O)c2c(c1)O[C@H](c1ccc(O)c(O)c1)[C@H](O)C2 [(−)-epicatechin]
- effect of the compound according to formula I reached by known rooibos constituents (central nervous system): cannot be achieved with approximately equimolar quantities

Compound: O=C(CCc1ccc(O)c(O)c1)c1c(O)c(C2OC(CO)C(O)C(O)C2O)c(O)c(C2c3c(O)cc(O)cc3OC(c3ccc(O)c(O)c3)C2O)c1O (centres unmarked) [compound of formula I, aspacat]
- crossing of the blood-brain barrier (central nervous system; concluded from the in vivo EEG data): evidently also crosses the blood-brain barrier
- discriminant analysis of the in vivo data (central nervous system; rat, in vivo): a relationship with the drugs for the treatment of dementias, Morbus Parkinson, depression and painful conditions
- pharmacological activity on the central nervous system in tele-stereo EEG (central nervous system; rats, oral administration): marked pharmacological activity on the central nervous system
- changes in the EEG frequencies (central nervous system; rats, oral administration, as known for galantamine, tacrine, L-DOPA, nefopam): dose-dependent changes in the EEG frequencies
- pharmacological activity compared with known constituents of the rooibos extract (central nervous system; versus aspalathin, catechin, (−)-epicatechin): higher pharmacological activity than these known constituents of the rooibos extract

Reference: patent US20110159122A1, “COMBINATION OF EXTRACTS OF VARIOUS PLANTS FOR IMPROVING THE SYMPTOMS OF DEMENTIA DISORDERS” (Kneipp-Werke Kneipp-Mittel-Zentrale GmbH & Co,KG, priority 2008, published 2011)
